Experiments:
[1] = system: p21^CIP1/WAF1, p27^KIP1, pCdk2; test: Immunoblot of p21CIP1/WAF1, p27KIP1 and phosphorylated Cdk2 in Hs578T cells; format: cell-based, human
Method: (§1) The concentration of stearate used to treat the Hs578T cells was 50 μM. When EGF was used, the concentration was 1 nM EGF. Before the treatment with stearate or EGF, cells were first starved for 24-48 hours. Stearate was loaded onto fatty acid-free bovine serum albumin (BSA) according to the method reported by Spector et al. (13); briefly, stearate (0.5 g) was dissolved in chloroform (100 ml) and mixed well with 10 g diatomaceous earth in a 1 liter flask. The mixture was stirred and dried under nitrogen until powder. BSA is a physiological carrier of fatty acids and was used to avoid the introduction of organic solvents to solutions coming into contact with cells. Fatty acid-free BSA (1 g) was dissolved in 100 ml with Dulbecco's modified Eagle's medium without phenol red and mixed with 3 g of the stearate/diatomaceous earth mixture with stirring for 45 min. The stearate/BSA solution was filtered through a 0.45 μm filter, and adjusted to pH 7.4. The concentration of stearate in the solution was detected with the NEFA C Kit from Wako Chemicals GmbH (Neuss, Germany). All experimental data on Hs578T cells were controlled using fatty acid-free BSA control solutions that were put through the same preparatory procedure described for the stearate/BSA solution except for the fact that no fatty acid was added.
Cells were treated as described above, and lysed with lysis buffer. The supernatants of the lysates or the immunoprecipitates were loaded with Laemmli sample buffer on 10% sodium dodecyl sulfate-polyacrylamide gel electrophoresis gels after boiling at 100° C. for 5 min. Proteins were then transferred to a polyvinylidene difluoride membrane. The membranes were blocked overnight at 4° C. with blocking buffer containing 5% non-fat dried milk powder in Tris-buffered saline-T (25 mM Tris, 140 mM NaCl, 2.7 mM KCl, 0.05% Tween-20, pH 8.0), incubated with primary antibody in blocking buffer at room temperature for 1 hour and incubated with antirabbit or antimouse antibodies labeled with horseradish peroxidase (1:5000) in blocking buffer under the same conditions, and then washed three times for 10 min in Tris-buffered saline-T. The polyvinylidene difluoride membranes were washed and developed using enhanced chemiluminescence reagents.

[2] = system: ERK; test: Immunoblot of phosphorylated ERK in Hs578T cells; format: cell-based, human; conditions: PD98059 added to Hs578T cells
Method: as §1
Cells were treated as described above, and lysed with lysis buffer. […]

[3] = system: differentiated 3T3L1 adipocytes; test: Necrosis and apoptosis of differentiated 3T3L1 adipocytes (trypan blue, LDH, flow cytometry); format: cell-based, mouse; conditions: 50 μM
Method: 3T3L1 mouse fibroblast cells (ATCC, CL-173™) were maintained according to the manufacture's protocol, in Dulbecco's modified eagle's medium (DMEM) containing 10% Fetal Bovine Serum and antibiotics (M1 medium). Adipocyte differentiation was performed according to standard procedures (42). Briefly, the 3T3L1 fibroblasts were seeded at 30% confluence and allowed to grow to near 100% confluence. On the day after reaching maximum confluence, conversion was induced by replacing the M1 medium with M1 medium containing insulin (5 μg/ml), dexamethasone (0.25 μM), and 3-isobutyl-1-methyl-xanthine (0.5 mM). After 2 days, the cells were changed to M1 medium with insulin (5 μg/ml) for an additional 2 days. Thereafter, the cells were maintained in M1 medium without additives for 2 days.
(§2) 50 μM of stearate, oleate or linoleate was used to treat 3T3L1 cells as this concentration is centered within the normal range for non-esterified stearate in the plasma of humans. Stearate, oleate, or linoleate was loaded onto fatty acid free BSA according to the method reported by Spector and Hoak (Spector and Hoak, 1969). Briefly, stearate (0.5 g) was dissolved in chloroform (100 mL) and mixed well with 10 g diatomaceous earth in a 1 liter flask. The mixture was stirred and dried under nitrogen until powder. Fatty acid free BSA (1 g) was dissolved in 100 mL with DMEM without phenol red and mixed with 3 g of the stearate/diatomaceous earth mixture and stirred for 30 minutes. The stearate/BSA solution was filtered through a 0.45 μm filter, and adjusted to pH 7.4. The concentration of stearate in the solution was detected by use of a NEFA C kit. Oleic and linoleate were loaded in the same way. […] Before the treatment with fatty acid, 3T3L1 preadipocytes were grown to 100%, and were starved in 2% FBS medium for 24 hours.
(§3) After treatment, 3T3L1 cells were harvested, washed with cold PBS, and then resuspended in 100 μl annexin-binding buffer (50 mM HEPES, 700 mM NaCl, 12.5 mM CaCl2, pH 7.4). Cell density was determined, and the cells were diluted to 10^6 cells. Then 5μL of Alex Fluo 488 annexin V and 1 μL propidium iodide (PI) were added. Cells were gently oscillated and incubated for 15 min at room temperature. After adding 400 μL of binding buffer to each tube, cells were kept on ice and analyzed by flow cytometry within 1 hour. Cells that stained positive for Alex Fluo 488 annexin V and negative for PI were considered to be apoptotic. Cells that stained positive for both Alex Fluo 488 annexin V and PI were considered either in the end stage of apoptosis, or necrosis. Cells that stained negative for both Alex Fluo 488 annexin V and PI were considered alive and not undergoing measurable apoptosis. A BD LSR II flow cytometer from Becton Dickinson was used in all flow experiments and the data were analyzed with BD FACSDiva™ software V.6.1.3.
(§4) Lactate dehydrogenase (LDH) release was measured using a cytotoxicity detection kit, according to the manufacture's protocol. After 3T3L1 cells were treated, 1 ml of cell culture medium was removed and centrifuged. The supernatant was retained for assaying. For determinations, 100 μl of LDH assay reagent was added to 100 μl of supernatant and incubated for 30 min at room temperature in the dark. Absorbance was measured at 490 nm. Background release from culture medium alone was subtracted before reporting. Maximum release was measured after adding 2% Triton X-100 to untreated cells.
(§5) After treatment, 3T3L1 cells were harvested and stained with 0.4% trypan blue solution. Cells in the four corners of the grid were counted under a conventional bright field binocular microscope.

[4] = system: 3T3L1 preadipocytes; test: Cell death and apoptosis of 3T3L1 preadipocytes (trypan blue, LDH, flow cytometry); format: cell-based, mouse; conditions: 50 μM, vs control; for Percentage of dead cells (trypan blue): 48 hour treatment; for Dead cells (flow cytometry): 48 hours; for Cytotoxicity (lactate dehydrogenase): after 24 hours
Method: as §2, §3, §4, §5

[5] = system: visceral adipocytes from ApoE knockout mice; test: Expression of cIAP2, Bcl-2 and Bax in visceral adipocyte cultures; format: cell-based; conditions: 50 μM fatty acid; vs no additional fatty acid
Method: It was hypothesized that stearate induces apoptosis in visceral adipocytes by at least one of the following mechanisms: inhibition of cIAP2, activation of Bcl-2, and activation of BAX. […] Six cultures were exposed to each fatty acid or no fatty acid. The expression of cIAP2, Bcl-2, and Bax was measured in each culture. […] By decreasing levels of the cIAP2 and/or Bcl-2 polypeptides and increasing expression of the Bax polypeptide, stearate administration may lead to an increase in cellular apoptotic activity (such as but not limited to the visceral fat tissues). Without wishing to be bound by any given hypothetical model, it is proposed that this reduction in cIAP2 expression and this increase in Bax expression (independently or in combination) is responsible for the relative decrease in visceral fat tissue that is observed when animals are given a diet that is high in stearate.

[6] = PD98059 in stearate-treated cells

SMILES	Stearate-induced upregulation of p21^CIP1/WAF1 ([1]; PD98059 added following stearate and EGF treatment)	Stearate-induced decrease in pCdk2 [1, 6]	Stearate-induced increases in p27^KIP1 [1, 6]	ERK phosphorylation induced by stearate and EGF [2]	Cytotoxicity (lactate dehydrogenase in medium) [3]	Percentage of apoptotic cells (flow cytometry) [3]	Percentage of dead cells (flow cytometry) [3]	Percentage of dead cells (trypan blue) [3]	Percentage of dead cells (trypan blue) [4]	Dead cells (flow cytometry) [4]	Cytotoxicity (lactate dehydrogenase) [4]	Apoptotic cells (flow cytometry) [4]	Expression of Bax [5]	Expression of cIAP2 [5]
COc1cccc(-c2cc(=O)c3ccccc3o2)c1N [PD98059, 2′-amino-3′-methoxyflavone, reference compound]	reverses	only partially reversed	did not reverse	blocked	–	–	–	–	–	–	–	–	–	–
CCCCC/C=C\C/C=C\CCCCCCCC(=O)O [linoleate, linoleic acid]	–	–	–	–	no significant changes	no significant changes	no significant changes	no significant changes	no significant changes	no significant effects	did not change significantly	No significant changes	increased the expression of Bax to a lesser extent	no statistically significant effect
CCCCCCCC/C=C\CCCCCCCC(=O)O [oleate, oleic acid]	–	–	–	–	no significant changes	no significant changes	no significant changes	no significant changes	no significant changes	significantly decreased	significantly decreased	decreased	–	–
